Test results as given in the supplement of paper PMC11962398.

Columns and labels:
[1] = compound: T1, C[C@H]1CNCCN1c1nccc(-c2noc3c2CCC[C@@]32CCCc3sc(N)c(C#N)c32)n1 [BI-2493]; assay: 1 - AUC of viability dose-response curve (sensitivity) (fraction); higher = more sensitive; settings: 5 days
Description: (§1)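 PRISM pooled barcoded cancer cell line viability screen (Broad Institute) with BI-2493 at 8 doses in threefold dilutions from 0.00457 to 10 µmol/L, 5-day treatment; curves fitted per cell line. IC50 is undefined (placeholder) for resistant lines. AUC is capped at 1, and sensitivity is reported as 1 − AUC.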

[2] = compound: T1, BI-2493; settings: 5 days
Description: as §1

Row | Test System | 1 - AUC of viability dose-response curve [1] | IC50 of cell viability [2]
1 | G361_SKIN | 0.117 | 4.01 µM
2 | G401_SOFT_TISSUE | 0.17 | > 10 µM
3 | G402_SOFT_TISSUE | 0.117 | 4.25 µM
4 | G415_BILIARY_TRACT | 0.245 | 2.22 µM
5 | GAMG_CENTRAL_NERVOUS_SYSTEM | 0.0333 | 8.24 µM
6 | GB1_CENTRAL_NERVOUS_SYSTEM | 0.00342 | > 10 µM
7 | GB2_BILIARY_TRACT | 0.256 | 2.24 µM
8 | GCIY_STOMACH | 0.00163 | > 10 µM
9 | GCT27_TESTIS | 0.128 | > 10 µM
10 | GCT_SOFT_TISSUE | 0.0856 | 6.05 µM
11 | GI1_CENTRAL_NERVOUS_SYSTEM | 0.132 | 3.59 µM
12 | GOS3_CENTRAL_NERVOUS_SYSTEM | 0.0406 | 9.35 µM
13 | GP5D_LARGE_INTESTINE | 0.0606 | > 10 µM
14 | GRANTA519_HAEMATOPOIETIC_AND_LYMPHOID_TISSUE | 0.0332 | > 10 µM
15 | GSS_STOMACH | 0.19 | 3.3 µM
16 | H4_CENTRAL_NERVOUS_SYSTEM | 0.0861 | 5.48 µM
17 | H103_UPPER_AERODIGESTIVE_TRACT | 0.0476 | 7.57 µM
18 | H157_UPPER_AERODIGESTIVE_TRACT | 0.023 | 8.84 µM
19 | H376_UPPER_AERODIGESTIVE_TRACT | 0.243 | 5.33 µM
20 | H413_UPPER_AERODIGESTIVE_TRACT | 0.126 | > 10 µM
21 | HA1E_KIDNEY | 0.223 | > 10 µM

Row | Test System | 1 - AUC of viability dose-response curve [1] | IC50 of cell viability [2]
22 | HAC2_OVARY | 0.157 | 6.07 µM
23 | HCA1_CERVIX | 0.132 | 4.58 µM
24 | HCC15_LUNG | 0.0598 | 9.81 µM
25 | HCC33_LUNG | 0.161 | 9.27 µM
26 | HCC44_LUNG | 0.257 | 1.66 µM
27 | HCC56_LARGE_INTESTINE | 0.242 | 2.37 µM
28 | HCC78_LUNG | 0.164 | 7.51 µM
29 | HCC515_LUNG | 0.103 | 5.55 µM
30 | HCC827_LUNG | 0.0511 | 7.98 µM
31 | HCC1143_BREAST | 0.106 | 9.86 µM
32 | HCC1195_LUNG | 0.0206 | 9.21 µM
33 | HCC1359_LUNG | 0.00729 | 9.67 µM
34 | HCC1395_BREAST | 0.139 | 5.13 µM
35 | HCC1419_BREAST | 0.0762 | 7.93 µM
36 | HCC1428_BREAST | 0.106 | 5.47 µM
37 | HCC1438_LUNG | < 0 | > 10 µM
38 | HCC1806_BREAST | 0.0665 | 5.35 µM
39 | HCC1937_BREAST | 0.143 | > 10 µM
40 | HCC1954_BREAST | 0.0754 | 5.1 µM
41 | HCC2108_LUNG | 0.0106 | 9.5 µM
42 | HCC4006_LUNG | 0.233 | > 10 µM
